Test system: rat visual cortex slices
Experiment: Long-term potentiation (LTP) in visual cortex slice
Type: cell-based
Method: Long-Term Potentiation in Visual Cortex Slice
Following decapitation of the anesthetized rat, the brain was rapidly removed and immersed in ice-cold artificial cerebrospinal fluid (ACSF) containing (in mM) NaCl 124, KCl 3, KH2PO4 1.25, CaCl2 3.4, MgSO4 2.5, NaHCO3 26, and D-glucose 10. A block of visual cortex was created by removing the frontal ⅔ portion of the brain and the cerebellum. Coronal visual cortex slices of 350 μm thick were prepared from young adult (200-300 g) male Sprague-Dawley rats using a vibratome (VT 1000 S; Leica). The slices were maintained in an interface recording chamber perfused with preheated ACSF. Slices were continuously perfused with this solution at a rate of 1.00-1.50 ml/min while the surface of the slices was exposed to warm, humidified 95% O2/5% CO2 and maintained at 31±1° C. Visual cortex slices were allowed to recover for 1 hr before recording began. A single stimulating and recording electrode was placed in layer IV and III, respectively, to generate and record field excitatory postsynaptic potentials (fEPSPs). Pulses were administered at 0.05 Hz using a current that produced a fEPSP that is 50% of the maximum spike free response. An input-output (IO) curve is done to determine the stimulation needed to achieve a stable baseline. Following a 15 min stable baseline recording period, a train of 5 theta bursts (each burst containing four pulses at 100 Hz with an inter-burst interval of 200 ms) is delivered to the slice. This is repeated 2 additional times with a 1 minute inter-train interval, and the level of LTP was recorded for at least 30 min. Changes in amplitude of the synaptic response were used to measure the extent of LTP, since the amplitude was determined to be the more consistent parameter than the slope of the response. Control LTP values were obtained from slices not treated with drug. Different slices were used to study drug effects on LTP. Brimonidine was infused after 15 min baseline recording for duration of 20 minutes followed by LTP induction. […] LTP was recorded for at least 30 min after induction.

Row | Structure (SMILES) | brimonidine-induced enhancement of LTP in presence of alpha 2 pan antagonist (atipamezole plus brimonidine, FIG. 1 right panel) | effect on LTP (brimonidine administered to visual cortex slices, FIG. 1 left panel) | threshold dose for enhancement of LTP (visual cortex slices, FIG. 1 left panel)
1 | CCC1(c2cnc[nH]2)Cc2ccccc2C1 [atipamezole] | fully suppressed |  | 
2 | Brc1c(N=C2NCCN2)ccc2nccnc12 [brimonidine, (5-bromo-quinoxalin-6-yl)-imidazolidin-2-ylidene-amine] |  | marked and dose-dependent enhancement of LTP | 3 nM

Source: patent US20130197002A1, “B[…] TREATING VISUAL DISORDERS MEDIATED BY CENTRAL VISUAL P[…] THE EYE” (ALLERGAN, INC., priority 2012, published 2013)
